Measured values published in a melting point compilation (Tetko et al.; mined from patent text by program, amines drawn as free bases though some values may be those of a salt).
Residues, ends and D or L forms follow the SMILES beside them. *: point of attachment. Bz = O=C(c1ccccc1)*

Row | melting point [°C] | Compound
1 | 195 to 197 | NS(=O)(=O)c1cc(C(=O)O)cc([N+](=O)[O-])c1OCC(F)(F)F
2 | 69 to 70 | COc1cc(C)c(C(=O)c2c(OC)cccc2C(F)(F)F)c(OC)c1OC
3 | 160 to 162 | CCCN1C(=O)N2CC(Cc3ccccc3)N=C2c2[nH]c(C(OC)c3ccccc3)nc21 (centres undefined)
4 | 119 to 120 | COc1ccc([N+](=O)[O-])cc1CN1CCC(=O)C(C(c2ccccc2)c2ccccc2)C1 (centres undefined)
5 | 191 to 195 | COc1cc2c(cc1C(F)(F)F)N(C(=O)Nc1cc(F)cc(-c3cnccc3C)c1)CC2
6 | 114 | CCOC(=O)c1cc(-c2ccc(Cl)cc2Cl)c(-c2ccc(Cl)cc2)nc1C
7 | 265 to 266 | COc1cc(C=C(C#N)C(N)=O)c([N+](=O)[O-])cc1OC
8 | 60 to 62 | C=C(CO)COC(=O)NCCCCCCCCCCCCCCC
9 | 254 to 256 | N#Cc1cccc(NCC(=O)Nc2c(Cl)ccc3nc(N4CC[C@@H](O)C4)ccc23)c1
10 | 202 to 203 | Cc1cccc(C(=O)Nc2c(NC(=O)CCl)ccc3c2C(=O)c2ccccc2C3=O)c1
11 | 193 | COC(=O)CC(C(=O)OC)N1CCC(Nc2ncc3ncnc(Nc4cccc(Br)c4)c3n2)CC1 (centres undefined)
12 | 208 | CCN(Cc1ccc(OC(C)(C)C(=O)O)c(C)c1)c1cc(-c2ccc(Cl)cc2)nn1C
13 | 61 to 62 | COc1cc(C(=O)CBr)cc(OC)c1OC
14 | 228 | O=C(O)c1nccc(Cl)c1O
15 | 119 to 120 | COCCOc1ccc(CCCC(=O)O)c(Oc2ncc(C(F)(F)F)cc2Cl)c1
16 | > 280 | NC(=O)c1c(I)cc(I)c(CCC(=O)O)c1I
17 | 120 to 121 | O=[N+]([O-])c1cn2c(n1)O[C@@H](COc1ccc(N3CCC(Nc4ccc(Oc5ccc(OC(F)(F)F)cc5)cc4)CC3)cc1)CC2
18 | 218 to 220 | O=Cc1c2cccc(Cl)c2cc2c(Cl)cccc12
19 | 88 to 90 | COc1ccc(CC2=NC(C)(C)CO2)cc1[N+](=O)[O-]
20 | 111 to 112 | COc1ccc(CC(=O)C=NN=P(c2ccccc2)(c2ccccc2)c2ccccc2)cc1
21 | 173 | O=Cc1ccc(C(=O)Nc2ccc(C(F)(F)F)cc2)cc1
22 | 118 to 120 | Cc1ccc(C(=O)N2CC3CC2CN3c2nc(-c3ccncc3)cc(=O)n2C)cc1 (centres undefined)
23 | 198 | CS(=O)c1ccc(-c2nn(Cc3ccccc3)c(=O)cc2-c2ccc(F)cc2)cc1 (centres undefined)

Row | melting point [°C] | Compound
24 | 174 to 176 | Cn1ncc(C(N)=O)c1-c1ccc([N+](=O)[O-])o1
25 | 120 | CC(C)(C)OC(=O)N1CCC(c2cc(C(F)(F)F)ccc2N)CC1
26 | 143 to 145 | CS(=O)(=O)c1ccc(-n2nc(C(F)(F)F)cc2-c2ccc(-c3ccco3)c(Cl)c2)cc1
27 | 123 to 127 | NC(c1ccccc1)c1ccc(C(N)c2ccccc2)cc1 (centres undefined)
28 | 101 to 107 | Cc1cc(Cl)c(C(N)=O)c(Cl)c1
29 | 127 to 129 | Cc1cc(-n2nc(C(F)(F)F)cc2-c2ccc(S(C)(=O)=O)cc2)ccc1Br
30 | 41 to 42 | CCC(=O)c1c(C(C)C)nn2ccccc12
31 | 154 to 155 | CC(CSC(=O)c1ccccc1)C(=O)N1Cc2ccccc2CC1C(=O)O (centres undefined)
32 | 172 | CCOC(=O)C1CN(C2CC2)c2nc3cc(F)c(F)cc3cc2C1=O (centres undefined)
33 | 200 to 202 | CCNC(=O)[C@@H]1CCCN1C(=O)[C@H](C)NC(=O)c1ccccc1 (Bz-Ala-Pro-NHEt)
34 | 144 to 146 | CCOC(=O)c1cn(C2CC2)c2nc(N3CCC(N)C3)c(F)cc2c1=O (centres undefined)
35 | 80 to 81 | CCOC(=O)c1ccc([N+](=O)[O-])c(O)c1
36 | 222 to 224 | CCCCSc1cc(C(=O)O)cc(S(N)(=O)=O)c1Oc1ccccc1
37 | 185 | CC(C)(C)C(=O)N[C@H]1CC[C@H](CCN2CCN(c3nccc4c3CCO4)CC2)CC1
38 | 119 to 120 | Oc1ccc(C(F)(F)F)cc1-n1nc2ccccc2n1
39 | 80 to 82 | COc1c(F)c(F)c(C(=O)c2ccc(Br)cc2)c(F)c1F
40 | 105 to 106 | COC(=O)CN(C)c1nc(-c2ccc(Br)cc2)c(C=O)s1
41 | 200 to 203 | CCOC(=O)c1cnc2sc(S(=O)(=O)Cc3ccccc3)nn2c1=O
42 | 62 to 64 | CC(C)(C)N1C(=O)c2cnc(CCl)cc2C1=O
43 | 138 to 139 | CCN(CC)C(=O)Cc1cc(C(C)C)c(O)cc1C
44 | 161 to 163 | Cc1cccc(C=NN2C(=O)CN(C(c3ccccc3)c3ccccc3)CC2=O)n1
45 | 40 to 41 | COc1ccc(C(Cl)C(C)(C)[N+](=O)[O-])cc1 (centres undefined)
46 | 197 to 199 | CC(Oc1ncn(-c2cccc(Cl)c2)n1)C(=O)O (centres undefined)

Row | melting point [°C] | Compound
47 | 204 to 205 | Cn1nnnc1SCC(=O)Nc1ccc(C2CCCCC2)cc1
48 | 194 | NC(=O)c1ccc(C(N)=O)c(CC(O)CO)c1 (centres undefined)
49 | 114 to 117 | CCOC(=O)C1=C(C)NC(c2nccn2Cc2ccccc2)=NC1c1ccc(F)cc1Cl (centres undefined)
50 | 238 to 240 | CN(C)C(=O)NCc1ccc(Nc2n[nH]c3ncnc(Nc4cccc(Cl)c4)c23)cc1
51 | 183 to 185 | CCC(CC)=NNc1cc2c(nn1)CCN(C(=O)C(C)(C)C)C2
52 | 138 to 139 | COC(=O)c1cc(-c2ccc(C)cc2)n(-c2ccc(S(N)(=O)=O)cc2)n1
53 | 95 to 97 | COC(=O)COc1cccc2c(CCN=[N+]=[N-])coc12
54 | 105 | COc1ccc2cc([C@H](C)C(=O)OCC(C)(CO)CO)ccc2c1
55 | 117 to 118 | CC(=O)OCc1nc(C(Cl)Cl)cnc1N1C(=O)c2ccccc2C1=O
56 | 120 to 122 | COc1ccc(OC)c(-c2cc(F)cc3c2OC(CN)C3)c1 (centres undefined)
57 | 120 to 122 | Cc1ccc(Sc2cncc3sc(C(=O)NCC(O)CO)cc23)cc1 (centres undefined)
58 | 84 | CCCc1ccc(OC)c(-c2csc(N)n2)c1
59 | 254 | Nc1ccc(-c2noc(-c3cnn4c(C(F)F)cc(-c5ccc(Cl)cc5)nc34)n2)cn1
60 | 150 to 151 | CCOC(=O)/C=C/c1ccc2oc(Cc3nc(-c4ccccc4)oc3C)cc2c1
61 | 169 to 171 | O=C1Cc2cc(-c3cccc(Cl)c3)ccc2N1
62 | 147 to 148 | COC(=O)c1nc(C2CC2)nc(N)c1Cl
63 | 150 | CCCNc1nc(C)c(CCCl)c(=O)n1C
64 | 207 | CCOC(=O)/C=C/c1ccc(NC(=O)c2csc(NC(=O)NCc3ccccc3)n2)cc1
65 | 68 to 70 | CC(=O)NC(Cc1c[nH]c2ccccc12)C(=O)C=Cc1cc(C(F)(F)F)cc(C(F)(F)F)c1 (centres undefined)
66 | 234 | FC(F)(F)Oc1ccc2nc(NC(=S)Nc3ccccc3)sc2c1
67 | 186 to 188 | Cc1cc(C)cc(NC(=O)Cc2ccc(OC3(C(=O)O)CCOCC3)cc2)c1
68 | 104 to 106 | COC(=O)CCc1cc(C(=O)c2ccccc2Cl)c(NC(=O)CBr)s1
69 | 155 to 157 | COc1nc(NC(=O)NS(=O)(=O)c2ccccc2OC(F)F)nc(OCC(F)(F)F)n1

Row | melting point [°C] | Compound
70 | 104 to 106 | CC(=O)Oc1ccc(C#Cc2ccccc2)cc1
71 | 202 | Cc1cc(-c2ccc(Cl)c(Cl)c2)nc(-c2ccnc(-c3cccc(S(N)(=O)=O)c3)c2)n1
72 | 205 to 206 | C[C@]12C=CC(=O)N[C@@H]1CCc1cc(-c3cccc([N+](=O)[O-])c3)ccc12
73 | 95 to 97 | Cc1ncnc(-c2cc([N+](=O)[O-])c(F)cc2F)c1Cl
74 | 75 to 76 | Fc1cc2c(Cl)ncnc2cn1
75 | 91 to 94 | COc1cccc(C2=C(c3ccc(C(=O)N4Cc5cccn5Cc5ccccc54)cc3C)CCCC2)c1
76 | 140 to 141 | CS(=O)(=O)c1ccc(C2=C(c3ccc4c(c3)OCO4)CCC2)cc1
77 | 138 to 140 | COC(=O)C(CSSc1ccccc1C(=O)Nc1ccc(S(N)(=O)=O)cc1)NC(C)=O (centres undefined)
78 | 145 to 148 | O=C(O)C(=O)CC(=O)c1cccn1Cc1ccc(F)c(F)c1
79 | 74 to 80 | CC(=O)OC1CSC(Oc2cncc(-c3ccc(C#N)c(C)c3)c2)C(OC(C)=O)C1OC(C)=O (centres undefined)
80 | 129 to 132 | COCCCNc1ccc(S(N)(=O)=O)cn1
81 | 138 to 140 | CCCCCCCCCCCCc1nnn(C(CCCCCCCCCCCC)C(=O)Nc2c(OC)cc(OC)cc2OC)n1 (centres undefined)
82 | 124 to 128 | CCOC(=O)C(C)Cc1ccc(-n2c(C)nn(-c3ccc(C#N)cc3)c2=O)cc1 (centres undefined)
83 | 58 to 62 | CS(=O)(=O)c1ccc(-c2cnn(CC(F)(F)F)c(=O)c2Cc2cccc(F)c2)cc1
84 | 209 to 210 | CCCCOc1c(N(C)C(=O)OC(C)(C)C)n(CC2CC2)c(=O)c2ccc(OCC(N)=O)cc12
85 | 176 to 177 | Cc1ccc(C2COc3c(C)c(C)c(NC(=O)CC(C)(C)C)c(C)c32)cc1 (centres undefined)
86 | 188 to 189 | O=[N+]([O-])c1ccc(-n2ncnc2-c2cnccn2)cc1
87 | 132 | O=C(O)CC1c2ccccc2CCN1S(=O)(=O)c1ccc2ccccc2c1 (centres undefined)
88 | 150 to 151 | CCc1cccc(-c2nc(=O)c3ccccc3s2)n1
89 | 214 to 215 | c1cc(-c2ccncn2)cc(-n2cnc3cc(-c4ccon4)ccc32)c1
90 | 237 to 239 | CC(C)(C)Nc1c(NCc2cccc(C(F)(F)F)c2)c(=O)c1=O
91 | 139 to 140 | CCCCCCOc1ccc(OC)c(Cc2cnc(N)nc2N)c1
92 | > 270 | O=C(c1cc2cc3[nH]c(=O)[nH]c3cc2[nH]1)N1CCC(Cc2ccccc2)CC1

Row | Compound | melting point [°C]
93 | COCCOc1ccc(CCC2(O)CN3CCC2CC3)cc1 (centres undefined) | 116 to 117
94 | COC(=O)C1(Cl)CCC(=O)O1 (centres undefined) | 50.5 to 51
95 | COC(=O)CSC(c1ccccc1OC)c1ccccc1OC | 65 to 67
96 | Cc1ccc2c(=O)[nH]c(C3CCN(C)CC3)cc2c1 | 236 to 238
97 | COC(=O)c1ccc2nn(-c3cc(C(C)(C)CC(C)(C)C)cc(C(C)(C)c4ccccc4)c3O)nc2c1 | 141 to 143
98 | O=C(Cc1c2c(nn1-c1ccccc1)c(Cl)nc1ccccc12)N1CCN(Cc2ccccc2)CC1 | 210 to 212
99 | CC(=O)NNC1=Nc2sc(Cl)cc2C(c2ccccn2)=NC1 | 193 to 195
